Assay results as given in patent publication US20210317111A1, “NOVEL MEDICAMENT FOR TREATING INFLAMMATORY BOWEL DISEASE” (OTSUKA PHARMACEUTICAL CO., LTD., priority 2018, published 2021).
In brackets after ≈: the same amount, converted by molar mass.

Columns and labels:
[1] = system: naive T cell transfer model of colitis; assay: naive T cell transfer model of colitis (Crohn's disease mouse model), histological scoring of large intestine; format: in vivo; settings: from 2nd week after transplantation for 2 weeks; present compound, CPFX, RFX oral once a day 10 mg/kg; antibody 25 mg/kg i.p. twice a week; 4th week
From the text: From spleen of Balb/c mouse, naive T cell (CD4+CD62L+CD44−) was isolated with antibody-coated magnetic beads. The isolated naive T cell (5×10^5 cells/mouse) was transplanted in abdominal cavity of SCID mouse which is a severe combined immunodeficiency animal. The present compound was orally administered to the mouse once a day at each dose defined in Table 1 below, from the first day of the transplantation for Test 1, or from the 2nd week after the transplantation for Test 2, until 5 weeks after the transplantation. [table] […] The anti-TNF-α antibody was intraperitoneally administered to the mouse twice a week at each dose defined in Table 2 below, from the 2nd week after the transplantation, for 2 weeks. [table] At 5th week for Tests 1 and 2, and at 4th week for Test 3, the large intestine was removed, and the length and weight of the large intestine were measured. In addition, the large intestine was fixed with formalin to carry out pathological analysis. From the removed large intestine, the anus part, the center part, and the cecal part were cut out each in about 0.5 cm, and each part was fixed with formalin. The paraffin block thereof was prepared, sliced, and subjected to H&E staining. The H&E stained slice was examined with a microscope to score it histologically. The histological scoring was carried out by scoring the inflammatory cell infiltrate, the Goblet cell loss, and the hyperplasia of mucosal epithelium, based on the standard (0-4) defined in Table 3 below. [table]

[2] = system: Mycobacterium avium subspecies paratuberculosis (MAP); assay: antibacterial activity (MIC), broth microdilution method; format: cell-based; settings: 336 h
Method: The chronic enterocolitis of ruminants which is caused by Mycobacterium avium subspecies paratuberculosis (MAP) is similar to Crohn's disease. […] Thus, the antibacterial activity of the present compound against MAP was evaluated. The used comparative drugs for the present compound were rifaximin (RFX), ciprofloxacin (CPFX), metronidazole (MTZ), clarithromycin (CAM), rifabutin (RBT), and clofazimine (CFZ).
The antibacterial activity (minimum inhibitory concentration (MIC)) was assayed by broth microdilution method which is based on Clinical and laboratory standards institute (CLSI).
The 5 strains of MAP were inoculated onto Middlebrook 7H9 agar containing 10% dubos oleic albumin complex (OADC), Tween 80 (0.5 g/L), mycobactin J (2 mg/L), and 1.5% agar, and pre-cultured at 37° C. under an aerobic condition for 14 days. After the pre-culture, the bacterial cell was scraped out from the agar, and prepared to the turbidity of 0.5 Mcfarland standard using Middlebrook 7H9 broth containing 10% dubos oleic albumin complex (OADC), Tween 80 (0.5 g/L), and mycobactin J (2 mg/L)]. The 10-fold diluted solution of the bacterial suspension was inoculated onto Middlebrook 7H9 broth 96-well plate which contains the present compound or any one of the comparative drugs, and incubated at 37° C. under an aerobic condition for 14 days.
After the incubation, the bacterial growth in each well of the 96-well plate was visually checked. The minimum concentration at which the bacterial growth was not observed, compared with the result of the well containing neither present compound nor comparative drug was determined as MIC of the present compound or each comparative drug against each test bacterium.

TNF-α production = assay: inhibition of LPS-induced TNF-α production in human peripheral blood (ELISA); format: cell-based; settings: human peripheral blood, 24 hours; for inhibitory activity for TNF-α production over concentration range: 1, 3, 10, 30, 100 μM
Method: The LPS solution which was adjusted to 2 μg/mL with RPMI 1640 medium was added to 48-well plate in the amount of 250 μL/well. The each diluted solution of each test compound and the diluted solution of the solvent control were added to 3 wells for each concentration in the amount of 50 μL/well, 4-fold diluted solution of human peripheral blood was added to each well (200 μL/well), and the wells were incubated at 37° C. in 5% CO2 for 24 hours. As LPS (−) control, RPMI 1640 medium without added LPS was prepared in the same manner. The final concentrations of each test sample were adjusted to 0, 1, 3, 10, 30, and 100 μM, and the final concentration of prednisolone was adjusted to 0.3 μM. 24 hours later from the incubation, each supernatant was collected and stored at −80° C. until the measurement of the TNF-α concentration.
The TNF-α concentration was measured by ELISA with Human TNF-alpha Quantikine ELISA Kit (R & D Systems). Each sample was unfrozen at room temperature, and diluted with Calibrator Diluent RD6-35 (1×) of the kit by 10-fold. The 10-fold diluted supernatant and the TNF-α standard solution were added on TNF-α microplate, and reacted according to the operating manual of the kit. After the coloring, the absorbance at wave length of 450 nm was measured with a microplate reader (Multiskan FC; Thermo Fisher […]), and the calibration curve was prepared with an analysis software (Skanit Software 3.1.0.4 RE for Multiskan FC (ja)) to read the TNF-α concentration of each sample. Calibration curve used a 4-parameter logistic curve.
The inhibition rates were presented as the mean±standard deviation using Microsoft Excel 2010. For each blood donor, the TNF-α production rate under each compound concentration was calculated with the TNF-α concentration in the supernatant of the solvent group as 100%.
The results are averages of the measurements obtained from the human peripheral blood of three volunteers.

Fusobacterium spp. = assay: antibacterial activity (MIC), agar plate dilution method; format: cell-based; settings: 17 strains of Fusobacterium spp.; anaerobic, 37° C.
Method: There are plural reports about the relationship between intestinal bacteria and inflammatory bowel disease, and it is thought that Fusobacterium spp., one of the intestinal bacteria is a pathogenic bacteria causing inflammatory bowel disease. […] The antibacterial activity (minimum inhibitory concentration (MIC)) was assayed by agar plate dilution method which is based on Clinical and laboratory standards institute (CLSI). The medium used herein was Brucella medium with sheep blood. […] The bacterial suspension was inoculated onto Brucella agar with sheep blood which contains the present compound or any one of the comparative drugs, and incubated at 37° C. under an anaerobic condition.

TNBS-induced enteritis = TNBS-induced enteritis model; format: in vivo, rat; settings: 100 mg/kg orally twice a day; 12 rats per group
Method: An enteritis animal model induced with 2,4,6-trinitrobenzenesulfonic acid (TNBS) is widely used as Crohn's disease model since the inflammatory finding is pathologically similar to that of human Crohn's disease. In addition, the enteritis model was used in the non-clinical study of mesalazine that is a medicament for treating Crohn's disease. Thus, this enteritis model was used as Crohn's disease model for evaluating the present compound.
Rats were made to be fasted for 24 or 48 hours, and the body weight were measured. The rats were laparotomized under isoflurane anesthesia, and 50% ethanol (0.25 mL) containing 60 mg/mL 2,4,6-trinitrobenzenesulfonic acid (TNBS) was injected into the large intestine from the cecum side toward the anal side to induce the injury. Each group composed of 12 rats was set, and vehicle, the present compound, or salazosulfapyridine (SASP) which is an already-existing drug for treating inflammatory bowel disease were administered for 7 days from the first day after the injection of TNBS. On the 8th day, each rat was laparotomized under anesthesia and killed by exsanguination. The large intestine was removed from the anus to the cecum, the large intestine was longitudinally incised, and the incised large intestine was washed with a cold saline. The lesion area of the large intestine was photographed with a digital camera. The area of the lesion area in the photograph of the large intestine was measured using image analyzing program.
Each compound was orally administered at a dose of 100 mg/kg twice a day from one day after inducing enteritis with TNBS. Each area of the lesion area on the 8th day was compared.

DSS-induced colitis = DSS-induced colitis model, stool scores; format: in vivo, rat
From the text: A colitis model induced by dextran sulfate sodium (DSS) is widely used as an experimental ulcerative colitis model having similarities of human ulcerative colitis regarding suppression of weight gain, colitis symptoms such as bloody stools and diarrhea, and injury formation in the large intestine. The effect of the present compound on the ulcerative colitis model was examined, and it was compared with salazosulfapyridine (SASP) clinically used as a therapeutic agent for ulcerative colitis.
Symptoms of colitis were induced by allowing rats to freely drink 3% dextran sulfate sodium (DSS) solution for 10 days. […] For the observation of stool symptoms, the degree of stool condition was scored as the score of stool firmness (Stool Consistency Score: 0, 1, 2, 3) and blood stool (Bloody Stool Score: 0, 1, 2, 3). The total of Stool Consistency Score and Bloody Stool Score was taken as the Total Stool Score. Each group was composed of 8 animals. Salazosulfapyridine (SASP), which is an already-existing drug for treating inflammatory bowel disease, the present compound or the vehicle were administrated for 10 days from the start date of 3% DSS freely drinking.

[3] = 11th day, present compound 1, 3, 10 mg/kg (P<0.01) or SASP 100 mg/kg (P<0.05) orally twice a day, Dunnett's test

CO[C@H]1/C=C/O[C@@]2(C)Oc3c(C)c(O)c4c(O)c(c5c(nc6cc(C)ccn65)c4c3C2=O)NC(=O)/C(C)=C\C=C\[C@H](C)[C@H](O)[C@@H](C)[C@@H](O)[C@@H](C)[C@H](OC(C)=O)[C@@H]1C [RFX, rifaximin]
histological score (Test 3, comparative study) [1]: little or no inhibitory effect
MIC [2]: 1 to 2 µg/mL (≈ 1.27 to 2.54 µM)
inhibitory activity for TNF-α production over concentration range (TNF-α production): no inhibitory activity

CO[C@H]1/C=C/O[C@@]2(C)Oc3c(C)c(O)c4c(c3C2=O)C2=NC3(CCN(CC(C)C)CC3)NC2=C(NC(=O)/C(C)=C\C=C\[C@H](C)[C@H](O)[C@@H](C)[C@@H](O)[C@@H](C)[C@H](OC(C)=O)[C@@H]1C)C4=O [RBT, rifabutin]
MIC [2]: 0.25 to 1 µg/mL (≈ 0.295 to 1.18 µM)

Cc1ncc([N+](=O)[O-])n1CCO [MTZ, metronidazole]
MIC [2]: > 128 µg/mL
MIC (Fusobacterium spp.): 0.03 to 0.5 µg/mL (≈ 0.175 to 2.92 µM)

O=C(O)c1cn(C2CC2)c2cc(N3CCNCC3)c(F)cc2c1=O [CPFX, ciprofloxacin]
histological score (Test 3, comparative study) [1]: little or no inhibitory effect
MIC [2]: 0.25 to 0.5 µg/mL (≈ 0.754 to 1.51 µM)
inhibition at 100 µM (TNF-α production; 100 μM, read-out: inhibitory effect on TNF-α production at 100 μM): < 50%
inhibitory activity for TNF-α production over concentration range (TNF-α production): dose-dependent inhibitory effect at a concentration of 30 μM or more
MIC (Fusobacterium spp.): 2 to 8 µg/mL (≈ 6.04 to 24.1 µM)

CC[C@H]1OC(=O)[C@H](C)[C@@H](O[C@H]2C[C@@](C)(OC)[C@@H](O)[C@H](C)O2)[C@H](C)[C@@H](O[C@@H]2O[C@H](C)C[C@H](N(C)C)[C@H]2O)[C@](C)(OC)C[C@@H](C)C(=O)[C@H](C)[C@@H](O)[C@]1(C)O [CAM, clarithromycin]
MIC [2]: 0.12 to 0.25 µg/mL (≈ 0.16 to 0.334 µM)

Nc1ccc(O)c(C(=O)O)c1 [5-ASA, 5-aminosalicylic acid]
inhibitory activity for TNF-α production over concentration range (TNF-α production): no inhibitory activity

CC(C)/N=c1\cc2n(-c3ccc(Cl)cc3)c3ccccc3nc-2cc1Nc1ccc(Cl)cc1 [CFZ, clofazimine]
MIC [2]: 0.12 to 0.5 µg/mL (≈ 0.253 to 1.06 µM)

O=C(O)c1cc(/N=N/c2ccc(S(=O)(=O)Nc3ccccn3)cc2)ccc1O [SASP, salazosulfapyridine, reference compound]
number of death during the treatment (TNBS-induced enteritis): two
day from which suppression of stool score deterioration was observed (DSS-induced colitis; 100 mg/kg orally twice a day): from the 9th day
deaths (DSS-induced colitis; 100 mg/kg orally twice a day, 8 animals per group): 2
bloody stool score vs vehicle control (DSS-induced colitis; 11th day, present compound 1 mg/kg (P<0.05), 3, 10 mg/kg (P<0.01) or SASP 100 mg/kg orally twice a day, Dunnett's test): not significant
stool firmness (Stool Consistency Score) vs vehicle control (DSS-induced colitis; [3]): significant differences
total stool score vs vehicle control (DSS-induced colitis; [3]): significant differences
